# Measurements: US12714107B2, “Dioxazolines and their use as herbicides” (BASF SE, priority 2020, dated 2026)
# Tests used:
# [1] = tested on: AVEFA; assay: greenhouse herbicidal activity, post-emergence method; format: in vivo, Avena fatua; conditions: scale 0 to 100
# From the text: (§1) The culture containers used were plastic flowerpots containing loamy sand with approximately 3.0% of humus as the substrate. The seeds of the test plants were sown separately for each species.
# (§2) For the pre-emergence treatment, the active ingredients, which had been suspended or emulsified in water, were applied directly after sowing by means of finely distributing nozzles. The containers were irrigated gently to promote germination and growth and subsequently covered with transparent plastic hoods until the test plants had rooted. This cover caused uniform germination of the test plants, unless this had been impaired by the active ingredients. For the post-emergence treatment, the test plants were first grown to a height of 3 to 15 cm, depending on the plant habit, and only then treated with the active ingredients which had been suspended or emulsified in water. For this purpose, the test plants were either sown directly and grown in the same containers, or they were first grown separately as seedlings and transplanted into the test containers a few days prior to treatment.
# (§3) Depending on the species, the test plants were kept at 10-25° C. or 20-35° C., respectively. The test period extended over 2 to 4 weeks. During this time, the test plants were tended, and their response to the individual treatments was evaluated.
# (§4) Evaluation was carried out using a scale from 0 to 100. […]
# [2] = tested on: ECHCG; assay: greenhouse herbicidal activity, pre-emergence method; format: in vivo, Echinocloa crus-galli; conditions: scale 0 to 100
# From the text: as §1, §2, §3, §4
# [3] = tested on: SETFA; assay: as above; format: in vivo, Setaria faberi; conditions: application rate 1,000 kg/ha, scale 0 to 100
# From the text: as §1, §2, §3, §4
# [4] = tested on: ECHCG; assay: greenhouse herbicidal activity, post-emergence method; format: in vivo, Echinocloa crus-galli; conditions: scale 0 to 100
# From the text: as §1, §2, §3, §4
# [5] = tested on: AMARE; assay: greenhouse herbicidal activity, pre-emergence method; format: in vivo, Amaranthus retroflexus; conditions: scale 0 to 100
# From the text: as §1, §2, §3
# Evaluation was carried out using a scale from 0 to 100. 100 means no emergence of the test plants, or complete destruction of at least the aerial moieties, and 0 means no damage, or normal course of growth. A good herbicidal activity is given at values of 80 to 90 and a very good herbicidal activity is given at values of 90 to 100.
# The test plants used in the greenhouse experiments were of the following species: […]
# [6] = tested on: AMARE; assay: greenhouse herbicidal activity, post-emergence method; format: in vivo, Amaranthus retroflexus; conditions: application rate 1,000 kg/ha, scale 0 to 100
# From the text: as §1, §2, §3, §4
# [7] = tested on: ALOMY; assay: as above; format: in vivo, Alopercurus myosuroides; conditions: application rate 0,500 kg/ha, scale 0 to 100
# From the text: as §1, §2, §3, §4
# [8] = tested on: SETVI; assay: as above; format: in vivo, Setaria viridis; conditions: application rate 0,500 kg/ha, scale 0 to 100
# From the text: as §1, §2, §3, §4
# [9] = tested on: APESV; assay: greenhouse herbicidal activity, pre-emergence method; format: in vivo, Apera spica-venti; conditions: application rate 0,500 kg/ha, scale 0 to 100
# From the text: as §1, §2, §3, §4
smiles,measurement,setting,value
COC(=O)C1C=CC(NC(=O)C2(C(F)(F)F)ON=C(c3cc(Cl)cc(Cl)c3)O2)C1 (centres unmarked) [compound 19],herbicidal activity against AVEFA,"[1]; application rate 0,250 kg/ha",very good (a very good herbicidal activity is given at values of 90 to 100)
CC(CC(=O)O)NC(=O)C1(C)ON=C(c2cc(Cl)cc(Cl)c2)O1 (centres unmarked) [compound 17],herbicidal activity against ECHCG,"[2]; application rate 1,000 kg/ha",good (A good herbicidal activity is given at values of 80 to 90)
same,herbicidal activity against SETFA,[3],very good (a very good herbicidal activity is given at values of 90 to 100)
COC(=O)CC(C)NC(=O)C1(C)ON=C(c2cc(Cl)cc(Cl)c2)O1 (centres unmarked) [compound 11],herbicidal activity against ECHCG,"[4]; application rate 0,500 kg/ha",very good (a very good herbicidal activity is given at values of 90 to 100)
C=CC1(C(=O)NC(C)CC(=O)OC)ON=C(c2cc(Cl)cc(Cl)c2)O1 (centres unmarked) [compound 110],herbicidal activity against AMARE,"[5]; application rate 1,000 kg/ha",good (A good herbicidal activity is given at values of 80 to 90)
same,herbicidal activity against AMARE,[6],good (A good herbicidal activity is given at values of 80 to 90)
"COC(=O)C[C@H](C)NC(=O)C1(C(F)(F)F)ON=C(c2cc(Cl)cc(Cl)c2)O1 (stereo partly drawn) [compound 13, methyl (3S)-3-[[3-(3,5-dichlorophenyl)-5-(trifluoromethyl)-1,4,2-dioxazole-5-carbonyl]amino]butanoate]",herbicidal activity against AMARE,"[5]; application rate 0,500 kg/ha",very good (a very good herbicidal activity is given at values of 90 to 100)
same,herbicidal activity against ALOMY,[7],good (A good herbicidal activity is given at values of 80 to 90)
COC(=O)C1CC(NC(=O)C2(C)ON=C(c3cc(F)cc(F)c3)O2)C1 (centres unmarked) [compound 16],herbicidal activity against SETVI,[8],very good (a very good herbicidal activity is given at values of 90 to 100)
COC(=O)C1C=CC(NC(=O)C2(C)ON=C(c3cc(F)cc(F)c3)O2)C1 (centres unmarked) [compound 18],herbicidal activity against AMARE,"[5]; application rate 1,000 kg/ha",very good (a very good herbicidal activity is given at values of 90 to 100)
C=CC1(C(=O)NC2C=CC(C(=O)OC)C2)ON=C(c2cc(Cl)cc(Cl)c2)O1 (centres unmarked) [compound 111],herbicidal activity against ECHCG,"[2]; application rate 0,250 kg/ha",very good (a very good herbicidal activity is given at values of 90 to 100)
same,herbicidal activity against ECHCG,"[4]; application rate 0,250 kg/ha",very good (a very good herbicidal activity is given at values of 90 to 100)
COC(=O)CCCNC(=O)C1(C)ON=C(c2cc(Cl)cc(Cl)c2)O1 (centres unmarked) [compound 12],herbicidal activity against AVEFA,"[1]; application rate 0,500 kg/ha",good (A good herbicidal activity is given at values of 80 to 90)
same,herbicidal activity against APESV,[9],good (A good herbicidal activity is given at values of 80 to 90)
